The results in this text go back to PubChem BioAssay AID328 (DTP/NCI, 2004).

The experiment relates to BDF1 mice, P388 leukemia ip, median survival T/C. Description: NCI In Vivo Anticancer Drug Screen. Data for tumor model P388 Leukemia (intraperitoneal) in B6D2F1 (BDF1) mice. The note with it: endpoint: median survival time, higher = longer survival. A digest of the protocol: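 Transplantable tumour in mice; compound vs vehicle dosing; survival scored; ratio of treated to control reported.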

The mark [1] stands for this setting: dose: 25.0 mg/kg/injection, schedule: Q01DX009 (ip), vehicle: saline.
Where [2] appears, read: dose: 50.0 mg/kg/injection, schedule: Q01DX009 (ip), vehicle: saline.
Setting [3] is: dose: 100.0 mg/kg/injection, schedule: Q01DX009 (ip), vehicle: saline.
The mark [4] stands for this setting: dose: 400.0 mg/kg/injection, schedule: Q01DX009 (ip), vehicle: saline.
[5] abbreviates: dose: 50.0 mg/kg/injection, schedule: Q01DX009 (ip), vehicle: saline with Tween-80.
[6] abbreviates: dose: 100.0 mg/kg/injection, schedule: Q01DX009 (ip), vehicle: saline with Tween-80.
[7] abbreviates: dose: 200.0 mg/kg/injection, schedule: Q01DX009 (ip), vehicle: saline with Tween-80.
The mark [8] stands for this setting: dose: 100.0 mg/kg/injection, schedule: Q01DX009 (ip), vehicle: Klucel (hydroxypropylcellulose) (HPC).
[9] abbreviates: dose: 200.0 mg/kg/injection, schedule: Q01DX009 (ip), vehicle: Klucel (hydroxypropylcellulose) (HPC).
The mark [10] stands for this setting: dose: 100.0 mg/kg/injection, schedule: Q04DX003 (ip), vehicle: saline.
[11] abbreviates: dose: 200.0 mg/kg/injection, schedule: Q04DX003 (ip), vehicle: saline.
Setting [12] is: dose: 25.0 mg/kg/injection, schedule: Q01DX009 (ip), vehicle: saline with Tween-80.
[13] abbreviates: dose: 400.0 mg/kg/injection, schedule: Q04DX003 (ip), vehicle: saline.
Where [14] appears, read: dose: 100.0 mg/kg/injection, schedule: Q04DX003 (ip), vehicle: saline with Tween-80.
Setting [15] is: dose: 100.0 mg/kg/injection, schedule: Q04DX003 (ip), vehicle: Klucel (hydroxypropylcellulose) (HPC).
Setting [16] is: dose: 200.0 mg/kg/injection, schedule: Q04DX003 (ip), vehicle: Klucel (hydroxypropylcellulose) (HPC).
Where [17] appears, read: dose: 200.0 mg/kg/injection, schedule: Q04DX003 (ip), vehicle: saline with Tween-80.
Setting [18] is: dose: 400.0 mg/kg/injection, schedule: Q04DX003 (ip), vehicle: saline with Tween-80.

Values joined by “and” are separate entries in the source; they are usually repeats but may differ in a detail not shown here. Equal values may be shown once. Toxic doses and inconclusive results are not listed.

`NCC1OC(OC2C(N)CC(N)C(O)C2OC2OC(CO)C(O)C2O)C(N)C(O)C1O` (stereo not drawn): the T/C by setting is: (dose: 12.5 mg/kg/injection, schedule: Q01DX009 (ip), vehicle: saline) 104 % of control; under setting [1], 111 % of control; under setting [2], 111 % of control; under setting [3], 110 % of control and 114 % of control and 120 % of control; (dose: 150.0 mg/kg/injection, schedule: Q01DX009 (ip), vehicle: saline) 105 % of control; (dose: 200.0 mg/kg/injection, schedule: Q01DX009 (ip), vehicle: saline) 119 % of control. Further, the T/C runs as follows: (dose: 225.0 mg/kg/injection, schedule: Q01DX009 (ip), vehicle: saline) 99 % of control; under setting [4], 99 % of control.
In the case of `NCc1c(Cl)c(Cl)c(Cl)c(CN)c1Cl`, the T/C by setting is: under setting [5], 100 % of control; under setting [6], 90 % of control; under setting [7], 86 % of control.
As for `COc1ccc(CCN2CSC(=S)N(CCc3ccc(OC)c(OC)c3)C2)cc1OC`, the T/C under setting [8] was 100 % of control; the T/C under setting [9] is 110 % of control; the T/C (dose: 400.0 mg/kg/injection, schedule: Q01DX009 (ip), vehicle: Klucel (hydroxypropylcellulose) (HPC)) is 94 % of control.
Take `O=C(OC(c1ccccc1)(C(F)(F)F)C(F)(F)F)c1cccc(Cl)c1`: the T/C is, setting by setting: under setting [5], 104 % of control; under setting [6], 109 % of control; under setting [7], 118 % of control.
As to `CCN(CC)CCCC(C)Nc1c2ccc(Cl)cc2nc2cc(Cl)ccc12` (stereo not drawn), the T/C (dose: 12.5 mg/kg/injection, schedule: Q01DX009 (ip), vehicle: Klucel (hydroxypropylcellulose) (HPC)) was 120 % of control.
`CC12CCOC(=O)/C=C/C=C/C(=O)OC3CC4OC5C6OC6(C)CCC5(COC(=O)C1O2)C3(C)C41CO1` (stereo not drawn): the T/C was 154 % of control (dose: 2.5 mg/kg/injection, schedule: Q01DX009 (ip), vehicle: saline + alcohol) and 157 % of control (dose: 10.0 mg/kg/injection, schedule: Q01DX009 (ip), vehicle: saline + alcohol).
Regarding `CC(C)(C)C[CH2][Hg][Cl]`, the T/C (dose: 3.13 mg/kg/injection, schedule: Q04DX003 (ip), vehicle: saline) is 105 % of control; the T/C (dose: 6.25 mg/kg/injection, schedule: Q04DX003 (ip), vehicle: saline) was 100 % of control; the T/C (dose: 8.25 mg/kg/injection, schedule: Q04DX003 (ip), vehicle: saline sonified) is 109 % of control; the T/C (dose: 12.5 mg/kg/injection, schedule: Q04DX003 (ip), vehicle: saline sonified) is 113 % of control; the T/C (dose: 18.75 mg/kg/injection, schedule: Q04DX003 (ip), vehicle: saline sonified) is 100 % of control.
Regarding `OCC(F)(F)C(F)(F)C(F)(F)F`, the T/C is 100 % of control under setting [6]; 104 % of control under setting [7]; 109 % of control (dose: 400.0 mg/kg/injection, schedule: Q01DX009 (ip), vehicle: saline with Tween-80).
For `C[S+](C)Cc1ccc(C(=O)Oc2ccc([N+](=O)[O-])cc2)cc1`, the T/C under setting [2] was 100 % of control; the T/C (dose: 50.0 mg/kg/injection, schedule: Q04DX003 (ip), vehicle: saline) was 100 % of control; the T/C under setting [3] is 105 % of control; the T/C under setting [10] was 109 % of control; the T/C under setting [11] was 100 % of control.
For `Nc1ncnc2c1nnn2C1OC(CO)C(O)C1O` (stereo not drawn), the T/C is 150 % of control (dose: 10.0 mg/kg/injection, schedule: Q01DX009 (ip), vehicle: Klucel (hydroxypropylcellulose) (HPC)); 160 % of control (dose: 15.0 mg/kg/injection, schedule: Q01DX009 (ip), vehicle: Klucel (hydroxypropylcellulose) (HPC)); 161 % of control (dose: 18.0 mg/kg/injection, schedule: Q01DX009 (ip), vehicle: Klucel (hydroxypropylcellulose) (HPC)); 96 % of control (dose: 24.0 mg/kg/injection, schedule: Q01DX009 (ip), vehicle: Klucel (hydroxypropylcellulose) (HPC)); 170 % of control (dose: 27.0 mg/kg/injection, schedule: Q01DX009 (ip), vehicle: Klucel (hydroxypropylcellulose) (HPC)); 170 % of control (dose: 28.0 mg/kg/injection, schedule: Q01DX009 (ip), vehicle: Klucel (hydroxypropylcellulose) (HPC)). For the same molecule, the T/C is, setting by setting: (dose: 35.0 mg/kg/injection, schedule: Q01DX009 (ip), vehicle: Klucel (hydroxypropylcellulose) (HPC)) 99 % of control; (dose: 40.0 mg/kg/injection, schedule: Q01DX009 (ip), vehicle: Klucel (hydroxypropylcellulose) (HPC)) 104 % of control; (dose: 42.0 mg/kg/injection, schedule: Q01DX009 (ip), vehicle: Klucel (hydroxypropylcellulose) (HPC)) 170 % of control; (dose: 53.0 mg/kg/injection, schedule: Q01DX009 (ip), vehicle: Klucel (hydroxypropylcellulose) (HPC)) 107 % of control; (dose: 60.0 mg/kg/injection, schedule: Q01DX009 (ip), vehicle: Klucel (hydroxypropylcellulose) (HPC)) 91 % of control; (dose: 63.0 mg/kg/injection, schedule: Q01DX009 (ip), vehicle: Klucel (hydroxypropylcellulose) (HPC)) 115 % of control. Besides, the T/C (dose: 79.0 mg/kg/injection, schedule: Q01DX009 (ip), vehicle: Klucel (hydroxypropylcellulose) (HPC)) is 102 % of control.
Turning to `[O-][n+]1c(CCl)nc2cccc3c2c1-c1ccccc1-3`, the T/C was 106 % of control (dose: 12.5 mg/kg/injection, schedule: Q01DX009 (ip), vehicle: saline with Tween-80); 111 % of control and 121 % of control (2×) under setting [12]; 121 % of control under setting [5]; 93 % of control under setting [6].
`Nc1ccc2c(-c3ccc([N+](=O)[O-])cc3)cc(=O)[nH]c2n1`: the T/C by setting is: under setting [11], 100 % of control; under setting [13], 97 % of control.
As to `CC(=O)/C(C1=NCCC1)=C(/C)O`, the T/C by setting is: under setting [1], 109 % of control; under setting [2], 100 % of control; under setting [3], 100 % of control.
Consider `O=C1CSC(=S)N1`, for which the T/C reads like this: under setting [5], 122 % of control; under setting [6], 122 % of control; under setting [7], 104 % of control.
In the case of `Cc1cc2ccccc2oc1=O`, the T/C (dose: 25.0 mg/kg/injection, schedule: Q04DX003 (ip), vehicle: saline with Tween-80) was 100 % of control; the T/C (dose: 50.0 mg/kg/injection, schedule: Q04DX003 (ip), vehicle: saline with Tween-80) is 100 % of control; the T/C under setting [14] was 100 % of control.
Consider `CC(C)=CCNc1ncnc2c1ncn2C1OC(CO)C(O)C1O` (stereo not drawn), for which the T/C is 95 % of control (dose: 50.0 mg/kg/injection, schedule: Q04DX003 (ip), vehicle: Klucel (hydroxypropylcellulose) (HPC)); 100 % of control under setting [15]; 104 % of control under setting [14]; 95 % of control under setting [16]; 100 % of control under setting [17].
As to `CCCNC(=O)Nc1ccc(C(=O)OCC(C)C)cc1`, the T/C runs as follows: under setting [14], 104 % of control; under setting [17], 100 % of control; under setting [18], 100 % of control.
`CCOC(=O)CCN(CCC(=O)OCC)C(C)C`: the T/C reads like this: under setting [14], 100 % of control; under setting [17], 100 % of control; under setting [18], 100 % of control.
`Nc1ccc(N=Nc2ccccc2)c(N)c1`: the T/C is 88 % of control under setting [12]; 99 % of control under setting [5]; 91 % of control under setting [8]; 113 % of control under setting [6]; 120 % of control under setting [3]; 86 % of control under setting [10]. In addition, the T/C was 100 % of control under setting [9]; 115 % of control under setting [7]; 100 % of control under setting [11]; 115 % of control under setting [4]; 104 % of control under setting [13].
For the molecule `CC(C)(C)c1ccc2c(cc[n+]3ccccc23)c1`, the T/C is, setting by setting: (dose: 1.56 mg/kg/injection, schedule: Q01DX005 (ip), vehicle: saline with Tween-80) 115 % of control; (dose: 3.13 mg/kg/injection, schedule: Q01DX005 (ip), vehicle: saline with Tween-80) 123 % of control.
`CNC(=O)c1ccccc1C(O)(c1ccccc1)c1ccccc1`: the T/C under setting [15] was 113 % of control; the T/C under setting [16] was 109 % of control; the T/C (dose: 400.0 mg/kg/injection, schedule: Q04DX003 (ip), vehicle: Klucel (hydroxypropylcellulose) (HPC)) was 100 % of control.
